Each structure is given as a SMILES string. Several values for one entry are separate records, joined by “and”; a condition that tells them apart may be missing. Equal entries are not always repeated.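 How tested: cells in 96-well plates exposed to compound for 48 hours at five concentrations. GI50 marks 50% less growth. TGI marks complete inhibition of growth.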

Test systems include SK-OV-3 ovarian; RXF 393 renal; MALME-3M melanoma; UACC-257 melanoma; SR leukemia; BT-549 breast; ACHN renal; HCC-2998 colon; UACC-62 melanoma; SF-268 CNS.
Experiment in all cases: NCI-60 cell line screen, 48 h

As for `NS(=O)(=O)c1ccc(Nc2cc(-c3ccc(O)c(F)c3)[nH]n2)cc1`, the GI50 with SK-OV-3 ovarian is > 25 µM; in the test on RXF 393 renal, > 25 µM; in the test with MALME-3M melanoma, > 23.2 µM; in the test with UACC-257 melanoma, > 25 µM; in the test on SR leukemia it was 12.5 µM; in the test on BT-549 breast, 8.66 µM. Also, the GI50 was > 25 µM in the test on ACHN renal, > 25 µM in the test on HCC-2998 colon, > 25 µM in the test on UACC-62 melanoma and 10.3 µM with SF-268 CNS. Also, the TGI in the test on SK-OV-3 ovarian, with RXF 393 renal, in the test on MALME-3M melanoma, in the test on UACC-257 melanoma, in the test with SR leukemia and in the test with BT-549 breast was > 25 µM throughout. The TGI in the test on ACHN renal, in the test on HCC-2998 colon, in the test on UACC-62 melanoma and with SF-268 CNS was > 25 µM in each case.

Turning to `CC(=O)OCC1OC(n2c(=S)n(-c3ccc([N+](=O)[O-])cc3)c(=O)c3ccccc32)C(OC(C)=O)C(OC(C)=O)C1OC(C)=O` (stereo unspecified), the TGI is 60.1 µM and 50.1 µM in the test on SK-OV-3 ovarian; 17.1 µM and 29.6 µM with RXF 393 renal; 38.4 µM with MALME-3M melanoma; 38.1 µM and 97.3 µM with UACC-257 melanoma; > 100 µM in the test with SR leukemia; 26.7 µM in the test with BT-549 breast. Besides, the TGI with ACHN renal was 97.9 µM and > 100 µM; in the test on HCC-2998 colon, 61.4 µM and 46.6 µM; in the test on UACC-62 melanoma, 34 µM and 40.7 µM; in the test with SF-268 CNS, 62.1 µM and 44.7 µM. Moreover, the GI50 was 4.61 µM and 14.3 µM with RXF 393 renal; 13 µM and 28.3 µM with UACC-257 melanoma; 4.67 µM in the test on SR leukemia; 20.3 µM and 29.7 µM in the test with ACHN renal; 26.8 µM and 20.8 µM with HCC-2998 colon; 17.6 µM in the test with UACC-62 melanoma.

In the case of `O=C(Nc1ccc(Oc2ccc(F)cc2)cc1)[C@@H]1C[C@@H](Cc2ccc(F)cc2)CN1C(=O)Cn1ccnn1`, the GI50 was 19.5 µM with SK-OV-3 ovarian; 2.85 µM with RXF 393 renal; 9.49 µM in the test with MALME-3M melanoma; 8.04 µM in the test on UACC-257 melanoma; 3.14 µM with SR leukemia; 11.5 µM in the test with BT-549 breast. The GI50 with ACHN renal was 4.93 µM; with HCC-2998 colon, 7.17 µM; in the test with UACC-62 melanoma, 6.14 µM; in the test on SF-268 CNS it was 8.55 µM. For the same compound, the TGI was > 75.7 µM with SK-OV-3 ovarian; 11.6 µM with RXF 393 renal; 26.1 µM in the test on MALME-3M melanoma; 24.9 µM with UACC-257 melanoma; 14.2 µM with SR leukemia; 30 µM in the test with BT-549 breast. The TGI was 25.2 µM in the test on ACHN renal, 21.8 µM with HCC-2998 colon, 20.9 µM with UACC-62 melanoma and 33.8 µM in the test on SF-268 CNS.

In the case of `C#Cc1cccc(Nc2ncnc3cc(NC(=O)CCl)ccc23)c1`, the GI50 was 3.5 µM in the test on SK-OV-3 ovarian; 4.03 µM in the test on RXF 393 renal; 2.8 µM in the test with MALME-3M melanoma; 3.76 µM in the test with UACC-257 melanoma; 0.535 µM in the test with SR leukemia; 3.23 µM with BT-549 breast. Moreover, the GI50 is 2.14 µM with ACHN renal, 4.16 µM in the test with HCC-2998 colon, 1.53 µM with UACC-62 melanoma and 3.3 µM in the test with SF-268 CNS. For the same compound, the TGI in the test on SK-OV-3 ovarian stood at 11.5 µM; in the test on RXF 393 renal it was 7.78 µM; with MALME-3M melanoma it was 6.65 µM; in the test on UACC-257 melanoma, 8.12 µM; with SR leukemia it was 4.08 µM; in the test with BT-549 breast, 6.99 µM. Further, the TGI was determined as 5.66 µM with ACHN renal, 8.46 µM with HCC-2998 colon, 4.99 µM in the test with UACC-62 melanoma and 8.55 µM in the test on SF-268 CNS.

Consider `CCCCN(CCCC)C(=O)[C@H](CC)[C@@H]1CC[C@@H](C)[C@@H]([C@H](C)[C@@H](O)[C@@H](C)C(=O)[C@H](CC)C2O[C@]3(C=C[C@@H](O)[C@]4(CC[C@@](C)([C@H]5CC[C@](O)(CC)[C@H](C)O5)O4)O3)[C@H](C)C[C@@H]2C)O1` (stereo partly specified), for which the GI50 in the test on SK-OV-3 ovarian is 3.38 µM; in the test on RXF 393 renal, 1.59 µM; in the test on MALME-3M melanoma, 1.87 µM; with UACC-257 melanoma it was 2.9 µM; in the test on SR leukemia it was 2.89 µM; in the test with BT-549 breast, 2.73 µM. Further, the GI50 in the test on ACHN renal was 3.04 µM; in the test with HCC-2998 colon, 2.01 µM; in the test with UACC-62 melanoma, 1.47 µM; in the test with SF-268 CNS, 3.17 µM. The TGI in the test on SK-OV-3 ovarian is > 100 µM; in the test with RXF 393 renal, 3.37 µM; with MALME-3M melanoma, 4.16 µM; in the test on UACC-257 melanoma, 9.71 µM; in the test with SR leukemia it was 8.53 µM; with BT-549 breast it was 11.3 µM. In addition, the TGI is 10.5 µM in the test with ACHN renal, 5.04 µM with HCC-2998 colon, 3.6 µM in the test on UACC-62 melanoma and > 100 µM in the test on SF-268 CNS.

For the compound `N#CCn1c(=O)c(Oc2ccc(F)cc2F)cc2cnc(NC3CCOCC3)nc21`, the GI50 was > 25 µM in the test with SK-OV-3 ovarian; > 17.9 µM in the test on RXF 393 renal; > 22.5 µM with MALME-3M melanoma; > 25 µM in the test with UACC-257 melanoma; > 25 µM in the test on SR leukemia; 24.8 µM in the test on BT-549 breast. For the same compound, the GI50 was 19.5 µM in the test on ACHN renal, > 25 µM in the test on HCC-2998 colon, > 25 µM in the test on UACC-62 melanoma and > 25 µM in the test with SF-268 CNS. In addition, the TGI in the test on SK-OV-3 ovarian, with RXF 393 renal, with MALME-3M melanoma, with UACC-257 melanoma, with SR leukemia and in the test on BT-549 breast was > 25 µM each time. The TGI in the test with ACHN renal, in the test with HCC-2998 colon, in the test on UACC-62 melanoma and with SF-268 CNS was > 25 µM in each case.
